Test results reported in patent US8383139B2 (Bayer CropScience AG, priority 2008, dated 2013).

What was measured:
[1] = system: Alternaria solani; assay: Alternaria test (tomato)/protective; format: in vivo; conditions: 72 h, 100 ppm active substance, protective, evaluation 3 days after inoculation, read-out: degree of effectiveness
Method: (§1) • Solvents: 24.5 parts by weight of acetone • 24.5 parts by weight of dimethylacetamide • Emulsifier: 1 part by weight of alkylaryl polyglycol ether (polyoxyethylene (16) tristearylphenyl ether)
(§2) To prepare a suitable active substance composition, 1 part by weight of active substance is mixed with the given amounts of solvents and emulsifier and the concentrate is diluted to the desired concentration using water.
For the testing of protective effectiveness, young plants are sprayed with the active substance composition in the application rate given. After the spray coating has been dried on, the plants are inoculated with an aqueous suspension of spores of Alternaria solani. The plants are then placed in an incubation chamber at approximately 20° C. and 100% relative humidity.
Evaluation is carried out 3 days after the inoculation. In this connection, 0% means a degree of effectiveness corresponding to that of the control, while a degree of effectiveness of 100% means that no infestation is observed.

[2] = system: Puccinia triticina; assay: Puccinia triticina test (wheat)/protective; format: in vivo; conditions: 192 h, 500 ppm active substance, protective, evaluation 8 days after inoculation, read-out: degree of effectiveness
Method: • Solvent: 50 parts by weight of N,N-dimethylacetamide • Emulsifier: 1 part by weight of alkylaryl polyglycol ether (polyoxyethylene (16) tristearylphenyl ether) To prepare a suitable active substance composition, 1 part by weight of active substance is mixed with the given amounts of solvent and emulsifier and the concentrate is diluted to the desired concentration using water. For the testing of protective effectiveness, young plants are sprayed with the active substance composition in the application rate given. After the spray coating has been dried on, the plants are sprayed with spores with a suspension of spores of Puccinia triticina. The plants remain in an incubation chamber at 20° C. and 100% relative humidity for 48 hours. The plants are placed in a greenhouse at a temperature of approximately 20° C. and a relative humidity of approximately 80%. Evaluation is carried out 8 days after the inoculation. In this connection, 0% means a degree of effectiveness corresponding to that of the control, while a degree of effectiveness of 100% means that no infestation is observed.

[3] = system: Sphaerotheca fuliginea; assay: Sphaerotheca test (cucumber)/protective; format: in vivo; conditions: Podosphaera fuliginea, 168 h, 500 ppm active substance, protective, evaluation 7 days after inoculation, read-out: degree of effectiveness
Method: • Solvents: 49 parts by weight of N,N-dimethylformamide • Emulsifier: 1 part by weight of alkylaryl polyglycol ether (polyoxyethylene (16) tristearylphenyl ether) To prepare a suitable active substance composition, 1 part by weight of active substance is mixed with the given amounts of solvents and emulsifier and the concentrate is diluted to the desired concentration using water. For the testing of protective effectiveness, young cucumber plants are sprayed with the active substance composition in the application rate given. One day after the treatment, the plants are inoculated with a suspension of spores of Sphaerotheca fuliginea. Subsequently, the plants are placed in a greenhouse at 70% relative humidity and at a temperature of 23° C. Evaluation is carried out 7 days after the inoculation. In this connection, 0% means a degree of effectiveness corresponding to that of the control, while a degree of effectiveness of 100% means that no infestation is observed.

[4] = system: Uromyces appendiculatus; assay: Uromyces test (beans)/protective; format: in vivo; conditions: 240 h, 100 ppm active substance, protective, evaluation 10 days after inoculation, read-out: degree of effectiveness
Method: as §1, §2
For the testing of protective effectiveness, young plants are sprayed with the active substance composition in the application rate given. After the spray coating has been dried on, the plants are inoculated with an aqueous suspension of the spores of the bean rust pathogen Uromyces appendiculatus and then remain in an incubation chamber at approximately 20° C. and 100% relative humidity for 1 day.
The plants are then placed in a greenhouse at approximately 21° C. and a relative humidity of approximately 90%.
Evaluation is carried out 10 days after the inoculation. In this connection, 0% means a degree of effectiveness corresponding to that of the control, while a degree of effectiveness of 100% means that no infestation is observed.

[5] = system: Phakopsora pachyrhizi; assay: Phakopsora test (soybean)/protective; format: in vivo; conditions: 264 h, 500 ppm active substance, protective, evaluation 11 days after inoculation, read-out: degree of effectiveness
Method: • Solvent: 28.5 parts by weight of acetone • Emulsifier: 1.5 parts by weight of polyoxyethylene alkylphenyl ether (polyoxy-ethylene (16) tristearylphenyl ether)
To prepare a suitable active substance composition, 1 part by weight of active substance is mixed with the given amounts of solvent and emulsifier and the concentrate is diluted to the desired concentration using water.
For the testing of protective effectiveness, young plants are sprayed with the active substance composition at the application rate given. One day after the spraying, the plants are sprayed with an aqueous suspension of spores of Phakopsora pachyrhizi. The plants remain in a greenhouse at 20° C. and 80% relative humidity.
Evaluation is carried out 11 days after the inoculation. In this connection, 0% means a degree of effectiveness corresponding to that of the control, while a degree of effectiveness of 100% means that no infestation is observed.

[6] = log P by HPLC on reversed-phase columns (C 18), EEC Directive 79/831 Annex V.A8; format: physicochemical; conditions: reversed-phase C18 HPLC column, pH 2.3, [a] HPLC, acid region pH 2.3, 0.1% aqueous phosphoric acid and acetonitrile; read-out: log p
[7] = system: Septoria tritici; assay: Septoria tritici test (wheat)/protective; format: in vivo; conditions: Zymoseptoria tritici, 504 h, 500 ppm active substance, protective, evaluation 21 days after inoculation, read-out: degree of effectiveness
Method: • Solvent: 50 parts by weight of N,N-dimethylacetamide • Emulsifier: 1 part by weight of alkylaryl polyglycol ether (polyoxyethylene (16) tristearylphenyl ether) To prepare a suitable active substance composition, 1 part by weight of active substance is mixed with the given amounts of solvent and emulsifier and the concentrate is diluted to the desired concentration using water. For the testing of protective effectiveness, young plants are sprayed with the active substance composition at the application rate given. After the spray coating has dried on, the plants are sprayed with a suspension of spores of Septoria tritici. The plants remain in an incubation chamber at 20° C. and 100% relative humidity for 48 hours. The plants are afterwards placed under a transparent hood at 15° C. and 100% relative humidity for a further 60 hours. The plants are placed in a greenhouse at a temperature of approximately 15° C. and a relative humidity of 80%. Evaluation is carried out 21 days after the inoculation. In this connection, 0% means a degree of effectiveness corresponding to that of the control, while a degree of effectiveness of 100% means that no infestation is observed.

Structure (SMILES)	pest or weed control at 100 ppm [1] [%]	pest or weed control at 500 ppm [2] [%]	pest or weed control at 500 ppm [3] [%]	pest or weed control at 100 ppm [4] [%]	pest or weed control at 500 ppm [5] [%]	chromatographic logP [6]	pest or weed control at 500 ppm [7] [%]
CCN(C)C=Nc1cc(C)c(Oc2nc(C(C)c3ccccc3)ns2)cc1C (centres unmarked) [Example 5, N′-(2,5-dimethyl-4-{[3-(1-phenylethyl)-1,2,4-thiadiazol-5-yl]oxy}phenyl)-N-ethyl-N-methylimidoformamide]	≥ 70	≥ 70	≥ 70	≥ 70	≥ 80	1.92	
Cc1cc(Oc2nc(Cc3cccc(C(F)(F)F)c3)ns2)c(C)cc1N=CN1CCCCC1 [Example 13, 2,5-dimethyl-N-(piperidin-1-ylmethylidene)-4-({3-[3-(trifluoromethyl)benzyl]-1,2,4-thiadiazol-5-yl}oxy)aniline]	≥ 70	≥ 70	≥ 70	≥ 70		2.28	≥ 70
CCN(C)C=Nc1cc(C)c(Oc2nc(Cc3c(Cl)cccc3Cl)ns2)cc1C [Example 15, N′-(4-{[3-(2,6-dichlorobenzyl)-1,2,4-thiadiazol-5-yl]oxy}-2,5-dimethylphenyl)-N-ethyl-N-methylimidoformamide]	≥ 70	≥ 70	≥ 70	≥ 70		2.05	≥ 70
Cc1cc(Oc2nc(C(C)c3ccc(Cl)cc3)ns2)c(C)cc1N=CN(C)C(C)C (centres unmarked) [Example 19, N′-[4-({3-[1-(4-chlorophenyl)ethyl]-1,2,4-thiadiazol-5-yl}oxy)-2,5-dimethylphenyl]-N-methyl-N-(propan-2-yl)imidoformamide]	≥ 70	≥ 70	≥ 70	≥ 70		2.46	≥ 70
CCN(C)C=Nc1cc(Cl)c(Oc2nc(C(C)c3ccc(Cl)cc3)ns2)cc1C (centres unmarked) [Example 20, N′-[5-chloro-4-({3-[1-(4-chlorophenyl)ethyl]-1,2,4-thiadiazol-5-yl}oxy)-2-methylphenyl]-N-ethyl-N-methylimidoformamide]		≥ 70	≥ 70	≥ 70	≥ 80	2.39	
CCN(C)C=Nc1cc(C)c(Oc2nc(Cc3ccccc3)ns2)cc1C [Example 23, N′-{4-[(3-benzyl-1,2,4-thiadiazol-5-yl)oxy]-2,5-dimethylphenyl}-N-ethyl-N-methylimidoformamide]	≥ 70	≥ 70	≥ 70	≥ 70		1.71	≥ 70
Cc1cc(Oc2nc(C(C)(C)c3ccc(Cl)cc3)ns2)c(C)cc1N=CN1CCCCC1 [Example 26, 4-({3-[2-(4-chlorophenyl)propan-2-yl]-1,2,4-thiadiazol-5-yl}oxy)-2,5-dimethyl-N-(piperidin-1-ylmethylidene)aniline]	≥ 70	≥ 70	≥ 70	≥ 70		2.76	≥ 70
CCN(C)C=Nc1cc(Cl)c(Oc2nc(C(C)(C)c3ccc(Cl)cc3)ns2)cc1C [Example 28, N′-[5-chloro-4-({3-[2-(4-chlorophenyl)propan-2-yl]-1,2,4-thiadiazol-5-yl}oxy)-2-methylphenyl]-N-ethyl-N-methylimidoformamide]	≥ 70	≥ 70	≥ 70	≥ 70		2.73	≥ 70
Cc1cc(Oc2nc(Cc3ccccc3)ns2)c(C)cc1N=CN1CCCCC1 [Example 36, 4-[(3-benzyl-1,2,4-thiadiazol-5-yl)oxy]-2,5-dimethyl-N-(piperidin-1-ylmethylidene)aniline]	≥ 70	≥ 70	≥ 70	≥ 70		1.91	≥ 70
CCN(C)C=Nc1cc(C)c(Oc2nc(Cc3ccccc3C(F)(F)F)ns2)cc1C [Example 42, N′-[2,5-dimethyl-4-({3-[2-(trifluoromethyl)benzyl]-1,2,4-thiadiazol-5-yl}oxy)phenyl]-N-ethyl-N-methylimidoformamide]	≥ 70	≥ 70	≥ 70	≥ 70		2.1	≥ 70
Cc1cc(Oc2nc(Cc3ccc(Cl)c(Cl)c3)ns2)c(C)cc1N=CN(C)C(C)C [Example 47, N′-(4-{[3-(3,4-dichlorobenzyl)-1,2,4-thiadiazol-5-yl]oxy}-2,5-dimethylphenyl)-N-methyl-N-(propan-2-yl)imidoformamide]	≥ 70	≥ 70	≥ 70	≥ 70		2.35	≥ 70
CCN(C)C=Nc1cc(C)c(Oc2nc(Cc3ccc(Cl)c(Cl)c3)ns2)cc1C [Example 51, N′-(4-{[3-(3,4-dichlorobenzyl)-1,2,4-thiadiazol-5-yl]oxy}-2,5-dimethylphenyl)-N-ethyl-N-methylimidoformamide]	≥ 70	≥ 70	≥ 70	≥ 70		2.3	≥ 70
